The record followed here is US4439448A, “Glutamine derivatives” (Mitsubishi Chemical Industries Ltd., priority 1980, dated 1984).

Data set [1] deals with six strains as stipulated in the Labor Safety and Hygiene Law in Japan. As to the kind of experiment: mutagenicity test using six strains. Format: cell-based. The following applies: ~100 μg/plate.
The subject of data set [2] is ddY mice. As to the kind of experiment: TEST 1 acute toxicity in mice. Type of data set: in vivo. The note with it: during 7 days after administration. An excerpt:
The test drug was suspended in aqueous 50% solution of Tween 80 and administered to ddY mice weighing 20-25 g orally or intraperitoneally in doses indicated in Table 1 below.

Data set [3] deals with plaque forming cells in the spleen of mice. As to the kind of experiment: TEST 2 effect on plaque forming cells in the spleen of mice inoculated with sheep red blood cells, Balb/c (Run 1). Type of data set: in vivo, mouse. The note with it: 4 weeks, intravascular sheep cells, four consecutive days. As for the experimental part: (§1) Mice were inoculated by intravascular or intraperitoneal administration of 1×10^8 sheep cells per animal. Each group consisted of five mice. The test drug was administered orally or intraperitoneally for four consecutive days from the day when the sheep cells were administered.

For data set [4] the test system is unchanged. As to the kind of experiment: TEST 2 effect on plaque forming cells in the spleen of mice inoculated with sheep red blood cells, C3H/He (Run 2). Type of data set: in vivo, mouse. The note with it: 7 weeks, I.P. sheep cells, four consecutive days. As for the experimental part: as §1
Data set [5] deals with delayed hypersensitibity. The data set is described as follows: TEST 3 effects on delayed hypersensitivity (sheep red blood cell paw edema). The following applies: four consecutive days. Type of data set: in vivo, mice, ddY strain. Here is the method:
Into the palms of the right rear limbs of mice (ddY strain, weighing 25-30 g) was injected 40 μl of sheep red blood cells the concentration of which was adjusted to 1×10^7 /40 μl. The test drug was administered intraperitoneally or orally for four consecutive days inclusive of the day of sheep red blood cell administration. Three days after the day of sheep red blood cell administration, 40 μl of sheep red blood cells which were adjusted to have a concentration of 5×10^8 /40 μl were administered into the palms of the left rear limbs. After 24 hours, the thickness of the palms of the right and left rear limbs was measured. The edema was expressed as the difference in thickness between the palms of the left and right rear limbs. The results are shown in FIG. 3, in which the edema in the medicated group is expressed as percent control which means the percentage of the edema found in the group in which physiological saline is applied (control group).

The test system of data set [6] is rat adjuvant arthritis. As to the kind of experiment: TEST 4 effect on rat adjuvant arthritis. Format: in vivo, Sprague-Dawley rats. The note with it: 27 consecutive days. Here is the method:
The test animals were Sprague-Dawley rats at the age of 8 weeks and each group consisted of ten animals. An intracutaneous injection of 0.05 ml of a suspension of 0.5 mg of Mycobacterium butyricum in liquid paraffin was applied to each animal at the paw of the right rear limb. For 27 consecutive days from the day before the adjuvant injection, Compound (2) was orally administered at doses of 3, 10 and 30 mg/kg with measurement of the volume of the paw.

Regarding “N-(4-Carboxymethylphenyl)-L-glutamine [Compound (2)]”, the mutagenicity entry in data set [1] is “negative in mutagenicity”. In addition, the “No. of dead mice/No. of test animals” value in data set [2] (1,000 mg/kg IP) and in data set [2] (5,000 mg/kg PO) was 0/5 in each case. Also, the “PFC × 2,500/spleen (Mean ± standard error)” value in data set [3] (30 mg/kg P.O.) is reported as 99.0 ± 4.60 PFC × 2,500/spleen; in data set [3] (100 mg/kg P.O.) it was 91.8 ± 18.6 PFC × 2,500/spleen; in data set [3] (300 mg/kg P.O.) it was 73.4 ± 12.7 PFC × 2,500/spleen; in data set [4] (30 mg/kg P.O.), 113.0 ± 20.4 PFC × 2,500/spleen; in data set [4] (100 mg/kg P.O.) it was 160.0 ± 20.6 PFC × 2,500/spleen; in data set [4] (300 mg/kg P.O.), 152.4 ± 11.4 PFC × 2,500/spleen. Further, the “% Control (edema, percentage of that in physiological saline control group)” value is 69.7% in data set [5] (3 mg/kg I.P.); 65.9% in data set [5] (10 mg/kg I.P.); 62.3% in data set [5] (30 mg/kg I.P.); 78.8% in data set [5] (30 mg/kg P.O.); 66.2% in data set [5] (100 mg/kg P.O.); 65.0% in data set [5] (300 mg/kg P.O.). Besides, in data set [6] (3, 10 and 30 mg/kg orally), the “action on secondary inflammations” value is reported as “exerted an inhibitory action on these secondary inflammations in every dose”. Also, the “dose dependency of action on secondary inflammations” value in data set [6] (3, 10 and 30 mg/kg orally) is on record as “any definite dose dependency was not appreciated”. Moreover, in data set [6] (orally), the “decrease in body weight accompanying secondary inflammations” value is reported as “an improving tendency”. Also, in data set [6] (orally), the “inhibitory action on primary inflammations caused by direct reaction of the adjuvant” value was “very slight”.
